The values that follow come from patent publication US11760775B2, “Steroids and protein-conjugates thereof” (Regeneron Pharmaceuticals, Inc., priority 2016, dated 2023).

Experiment [1] has as its system GR activation in 293/PRLR/GRE-Luc cells (HEK293/9xUAS-Luc2P/pBind-GR/PRLR-HA high cells). In words: GR co-activator luciferase reporter cell based assay in 293/PRLR/GRE-Luc cells. Particulars: Homo sapiens, 72 hours of incubation; for Emax: HEK293, read-out: Activation (fold activation relative to Budesonide) in HEK293/9xUAS-Luc2P/pBind-GR/PRLR-HA high cells; for EC50: HEK293, read-out: HEK293/9xUAS-Luc2P/pBind-GR/PRLR-HA high cells EC50. The arrangement: species or system human.
Description: Bioassays described herein were used to assess the efficacy of free steroids and anti-PRLR-ncADCs. In one example, the bioassay assessed the activity of steroids, after internalization of a site-specific anti-PRLR-GC steroid ADC into cells, to bind to pBIND-GR and subsequent luciferase reporter activation. […] Then such stable cell line was further transfected with a chimeric receptor consisting of a GR ligand binding domain fused to the yeast Gal4 DNA binding domain (pBind-GR, Promega Cat #E1581), and a Gal4 upstream activator sequence (9×Gal4UAS-Luc2P) that drives luciferase gene expression.
(§1) For this assay, 20,000 cells were seeded in 96-well plates in media containing DMEM supplemented with 10% FBS and pencillin/streptomycin (complete media) and grown overnight at 37° C. in 5% CO2. […] Luciferase activity was determined by addition of OneGlo™ reagent (Promega, Cat #E6130) and relative light units (RLUs) were measured on a Victor luminometer (Perkin Elmer). The EC50 values were determined from a four-parameter logistic equation over a 10 point response curve using GraphPad Prism.
as §1, with “One-Glo™” for “OneGlo™”, “10-point” for “10 point”, “Prism. […] Minimal activation in this assay is defined as less than 10% of the maximal activation measured with the free payload.” for “Prism.”

For experiment [2], the target named is Glucocorticoid Receptor (GR) (Homo sapiens (Human), UniProt P04150). Kind of experiment: LanthaScreen TR-FRET GR Competitive Binding Assay (cell free). For orientation: TR-FRET usually uses a lanthanide donor and a delayed reading to cut background.

Structures can show the parent of a compound that is named as a salt.

Sequence of Glucocorticoid Receptor (GR) (P04150 524-758): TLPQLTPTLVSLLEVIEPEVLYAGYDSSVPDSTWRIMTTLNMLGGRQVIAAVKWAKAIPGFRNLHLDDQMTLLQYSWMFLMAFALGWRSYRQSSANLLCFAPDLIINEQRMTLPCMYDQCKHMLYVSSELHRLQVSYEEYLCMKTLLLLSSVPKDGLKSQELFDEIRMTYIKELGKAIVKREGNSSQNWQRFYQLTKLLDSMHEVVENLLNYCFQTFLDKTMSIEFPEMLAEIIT

Take `CCCC1O[C@@H]2C[C@H]3[C@@H]4CCC5=CC(=O)C=C[C@]5(C)[C@H]4[C@@H](O)C[C@]3(C)[C@]2(C(=O)CN(C)C)O1` (stereo partly drawn) [11-3 R/S, (1S,2S,4R,8S,9S,11S,12S,13R)-8-[2-(Dimethylamino)acetyl]-11-hydroxy-9,13-dimethyl-6-propyl-5,7-dioxapentacyclo[10.8.0.0^2,90.0^4,80.0^13,18]icosa-14,17-dien-16-one]: in experiment [1], the Emax fell in the range of 20 to 75% and the EC50 was 10 to 100 nM. The same compound returned an IC50 in experiment [2] of under 10 nM.
`CCC[C@@H]1O[C@@H]2C[C@H]3[C@@H]4CCC5=CC(=O)C=C[C@]5(C)[C@H]4[C@@H](O)C[C@]3(C)[C@]2(C(=O)COc2ccc(N)cc2)O1` [11-5 R, (1S,2S,4R,8S,9S,11S,12S,13R)-8-[2-(4-Aminophenoxy)acetyl]-11-hydroxy-9,13-dimethyl-6-propyl-5,7-dioxapentacyclo[10.8.0.0^2,90.0^4,80.0^13,18]icosa-14,17-dien-16-one]: in experiment [1], the Emax is over 75% and the EC50 is under 10 nM. In experiment [2], this compound came in with an IC50 of 10 to 100 nM.
On to `CCCC1O[C@@H]2C[C@H]3[C@@H]4CCC5=CC(=O)C=C[C@]5(C)[C@H]4[C@@H](O)C[C@]3(C)[C@]2(C(=O)COc2ccc(N)cc2)O1` (stereo partly drawn) [11-5 R/S, (1S,2S,4R,8S,9S,11S,12S,13R)-8-[2-(4-Aminophenoxy)acetyl]-11-hydroxy-9,13-dimethyl-6-propyl-5,7-dioxapentacyclo[10.8.00^2,90.0^4,80.0^13,18]icosa-14,17-dien-16-one], for which, in experiment [1], the Emax is over 75% and the EC50 was under 10 nM. This compound came in with an IC50 in experiment [2] of 10 to 100 nM.
The corresponding values for `CCC[C@H]1O[C@@H]2C[C@H]3[C@@H]4CCC5=CC(=O)C=C[C@]5(C)[C@H]4[C@@H](O)C[C@]3(C)[C@]2(C(=O)COc2ccc(N)cc2)O1` [11-5 S, (1S,2S,4R,8S,9S,11S,12S,13R)-8-[2-(4-Aminophenoxy)acetyl]-11-hydroxy-9,13-dimethyl-6-propyl-5,7-dioxapentacyclo[10.8.0.0^2,90.0^4,80.0^13,18]icosa-14,17-dien-16-one] are over 75%, under 10 nM and 10 to 100 nM.
For `CCC[C@H]1O[C@@H]2C[C@H]3[C@@H]4CCC5=CC(=O)C=C[C@]5(C)[C@H]4[C@@H](O)C[C@]3(C)[C@]2(C(=O)COc2ccc(N)c(F)c2)O1` [11-6 S, (1S,2S,4R,6S,8S,9S,11S,12S,13R)-8-[2-(4-Amino-3-fluorophenoxy)acetyl]-11-hydroxyl-9,13-dimethyl-6-propyl-5,7-dioxapentacyclo[10.8.0.0^2,90.0^4,80.0^13,18]icosa-14,17-dien-16-one], in experiment [1], the Emax is over 75% and the EC50 is under 10 nM. In addition, the half-inhibitory concentration (IC50) in experiment [2] was 10 to 100 nM.
With `CCC[C@@H]1O[C@@H]2C[C@H]3[C@@H]4CCC5=CC(=O)C=C[C@]5(C)[C@H]4[C@@H](O)C[C@]3(C)[C@]2(C(=O)COc2ccc(N)cc2F)O1` [11-7 R, (1S,2S,4R,8S,9S,11S,12S,13R)-8-[2-(4-Amino-3-fluorophenoxy)acetyl]-11-hydroxyl-9,13-dimethyl-6-propyl-5,7-dioxapentacyclo[10.8.0.0^2,90.0^4,80.0^13,18]icosa-14,17-dien-16-one], in experiment [1], the Emax is over 75% and the EC50 was in the range of 10 to 100 nM. In addition, in experiment [2], the half-inhibitory concentration (IC50) was 10 to 100 nM.
For `CCC[C@@H]1O[C@@H]2C[C@H]3[C@@H]4CCC5=CC(=O)C=C[C@]5(C)[C@H]4[C@@H](O)C[C@]3(C)[C@]2(C(=O)COc2ccc(NC)cc2)O1` [11-8 R, (1S,2S,4R,6R,8S,9S,11S,12S,13R)-11-Hydroxyl-9,13-dimethyl-8-{2-[4-(methylamino)phenoxy]acetyl}-6-propyl-5,7-dioxapentacyclo-[10.8.0.0^2,90.0^4,80.0^13,18]icosa-, 14,17-dien-16-one], in experiment [1], the Emax was over 75% and the EC50 is under 10 nM. In addition, the IC50 in experiment [2] is 10 to 100 nM.
As for `CCC[C@@H]1O[C@@H]2C[C@H]3[C@@H]4CCC5=CC(=O)C=C[C@]5(C)[C@H]4[C@@H](O)C[C@]3(C)[C@]2(C(=O)COc2ccc(F)cc2)O1` [11-10 R/S, (1S,2S,4R,6R,8S,9S,11S,12S,13R)-8-[2-(4-Fluorophenoxy)acetyl]-11-hydroxy-9,13-dimethyl-6-propyl-5,7-dioxapentacyclo[10.8.0.0^2,90.0^4,80.0^13,18]icosa-14,17-dien-16-one], in experiment [1], the Emax is under 20% and the EC50 was over 100 nM. In experiment [2], this compound yielded an IC50 of under 10 nM.
The corresponding values for `CCC[C@@H]1O[C@@H]2C[C@H]3[C@@H]4CCC5=CC(=O)C=C[C@]5(C)[C@H]4[C@@H](O)C[C@]3(C)[C@]2(C(=O)COc2ccc(NC(C)=O)cc2)O1` [11-11 R/S, N-(4-{2-[(1S,2S,4R,6R,8S,9S,11S,12S,13R)-11-Hydroxy-9,13-dimethyl-16-oxo-6-propyl-5,7-dioxapentacyclo[10.8.0.0^2,90.0^4,80.0^13,18]icosa-14,17-dien-8-yl]-2-oxoethoxy}phenyl)acetamide] are under 20%, over 100 nM and under 10 nM.
The like results for `CCCC1O[C@@H]2C[C@H]3[C@@H]4C[C@H](F)C5=CC(=O)C=C[C@]5(C)[C@@]4(F)[C@@H](O)C[C@]3(C)[C@]2(C(=O)COc2ccc(N)cc2)O1` (stereo partly drawn) [11-12 R/S, (1S,2S,4R,8S,9S,11S,12R,13S,19S)-8-[2-(4-Aminophenoxy)acetyl]-12,19-difluoro-11-hydroxy-9,13-dimethyl-6-propyl-5,7-dioxapentacyclo[10.8.0.0^2,90.0^4,80.0^13,18]icosa-14,17-dien-16-one] were, in that order, over 75%, under 10 nM and 10 to 100 nM.
Take `CCCC1O[C@@H]2C[C@H]3[C@@H]4C[C@H](F)C5=CC(=O)C=C[C@]5(C)[C@@]4(F)[C@@H](O)C[C@]3(C)[C@]2(C(=O)COc2cccc(N)c2)O1` (stereo partly drawn) [11-13 R, (1S,2S,4R,6R,8S,9S,11S,12R,13S,19S)-8-[2-(3-Aminophenoxy)acetyl]-12,19-difluoro-11-hydroxy-9,13-dimethyl-6-propyl-5,7-dioxapentacyclo[10.8.0.0^2,90.0^4,80.0^13,18]icosa-14,17-dien-16-one]: in experiment [1], the Emax is over 75% and the EC50 is under 10 nM. Also, the half-maximal inhibitory concentration (IC50) in experiment [2] was under 10 nM.
For `CCCC1O[C@@H]2C[C@H]3[C@@H]4C[C@H](F)C5=CC(=O)C=C[C@]5(C)[C@@]4(F)[C@@H](O)C[C@]3(C)[C@]2(C(=O)COc2ccc(N)c(F)c2)O1` (stereo partly drawn) [11-14 R/S, (1S,2S,4R,8S,9S,11S,12R,13S,19S)-8-[2-(4-Amino-3-fluorophenoxy)acetyl]-12,19-difluoro-11-hydroxy-9,13-dimethyl-6-propyl-5,7-dioxapentacyclo[10.8.0.0^2,9.0^4,80.0^13,18]icosa-14,17-dien-16-one], in experiment [1], the Emax is over 75% and the EC50 is under 10 nM. Also, the IC50 in experiment [2] was under 10 nM.
With `CCCC1O[C@@H]2C[C@H]3[C@@H]4C[C@H](F)C5=CC(=O)C=C[C@]5(C)[C@@]4(F)[C@@H](O)C[C@]3(C)[C@]2(C(=O)COc2ccc(CN)cc2)O1` (stereo partly drawn) [11-15 R/S, (1S,2S,4R,8S,9S,11S,12R,13S,19S)-8-{2-[4-(Aminomethyl)phenoxy]acetyl}-12,19-difluoro-11-hydroxy-9,13-dimethyl-6-propyl-5,7-dioxapentacyclo[10.8.0.0^2,90.0^4,80.0^13,18]icosa-14,17-dien-16-one], in experiment [1], the Emax was 20 to 75% and the EC50 lay within 10 to 100 nM. The IC50 in experiment [2] is under 10 nM.
The like results for `CCCC1O[C@@H]2C[C@H]3[C@@H]4C[C@H](F)C5=CC(=O)C=C[C@]5(C)[C@@]4(F)[C@@H](O)C[C@]3(C)[C@]2(C(=O)COc2cccc(N)n2)O1` (stereo partly drawn) [11-17 R/S, (1S,2S,4R,8S,9S,11S,12R,13S,19S)-8-{2-[(6-Aminopyridin-2-yl)oxy]acetyl}-12,19-difluoro-11-hydroxy-9,13-dimethyl-6-propyl-5,7-dioxapentacyclo[10.8.0.0^2,90.0^4,80.0^13,18]icosa-14,17-dien-16-one] were, in that order, over 75%, 10 to 100 nM and under 10 nM.
With `CCCC1O[C@@H]2C[C@H]3[C@@H]4C[C@H](F)C5=CC(=O)C=C[C@]5(C)[C@@]4(F)[C@@H](O)C[C@]3(C)[C@]2(C(=O)CN)O1` (stereo partly drawn) [11-19 R/S, (1S,2S,4R,6R,8S,9S,11S,12R,13S,19S)-8-(2-Aminoacetyl)-12,19-difluoro-11-hydroxy-9,13-dimethyl-6-propyl-5,7-dioxapentacyclo[10.8.0.0^2,90.0^4,80.0^13,18]icosa-14,17-dien-16-one; trifluoroacetic acid salt], in experiment [1], the Emax was over 75% and the EC50 was under 10 nM. Moreover, in experiment [2], the IC50 is under 10 nM.

By IC50 is commonly meant the concentration that gives 50% inhibition.
